These results are taken from PMC5349767 (ACS chemical neuroscience, 2015).

Counter-ions that a name gives are not always drawn. Like-named read-outs stand apart in the source and are kept apart here.

In experiment [1] the target is DAT (Rattus norvegicus, UniProt P23977). As to the kind of experiment: Inhibition of [3H]dopamine uptake in rat caudate synaptosomes. Format: biochemical. The note with it: for Fold decrease in DAT potency relative to comparator compound: 8 vs 7, 15 vs 9, 16 vs 7, 17 vs 10.
Sequence of DAT (Rattus norvegicus, UniProt P23977) (P23977 whole entry): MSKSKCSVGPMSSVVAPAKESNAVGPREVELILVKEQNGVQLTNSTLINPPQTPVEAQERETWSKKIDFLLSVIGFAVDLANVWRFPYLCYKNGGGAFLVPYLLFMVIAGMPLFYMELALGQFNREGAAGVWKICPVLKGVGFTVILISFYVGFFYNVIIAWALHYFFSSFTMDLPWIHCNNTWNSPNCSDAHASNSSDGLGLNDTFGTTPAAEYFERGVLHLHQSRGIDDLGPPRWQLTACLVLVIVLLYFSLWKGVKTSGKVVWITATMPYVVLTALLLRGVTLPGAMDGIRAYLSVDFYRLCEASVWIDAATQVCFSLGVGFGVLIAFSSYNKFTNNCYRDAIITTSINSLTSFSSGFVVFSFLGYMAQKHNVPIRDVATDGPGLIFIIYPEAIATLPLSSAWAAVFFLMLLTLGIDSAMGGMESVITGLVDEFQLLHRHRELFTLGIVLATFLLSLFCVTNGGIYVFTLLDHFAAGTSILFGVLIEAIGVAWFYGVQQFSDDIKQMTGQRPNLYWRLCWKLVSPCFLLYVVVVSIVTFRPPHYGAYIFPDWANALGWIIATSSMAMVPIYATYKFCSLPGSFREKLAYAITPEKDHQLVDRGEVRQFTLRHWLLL
The subject of experiment [2] is DAT. The note with it: read-out: IC50 as DAT reuptake inhibitor; 3,4-dichloro-α-PVP series; cited from earlier work.
The mark [3] stands for this setting: read-out: IC50, nM (SD), inhibition at DAT, 5 nM [3H]dopamine uptake, rat caudate synaptosomes, mean ± SD, n = 3.

In general, IC50 refers to the concentration at which inhibition is half-maximal. `O=C(c1ccccc1)C(C1CCCC1)N1CCCC1` (centres unmarked) [compound 13, 2-Cyclopentyl-1-phenyl-2-(pyrrolidin-1-yl)ethanone Hydrochloride] had an IC50 on DAT [1] of 17.1 nM.

With `CCCCC(C(=O)c1ccccc1)N1CCCC1` (centres unmarked) [compound 12, 1-Phenyl-2-(pyrrolidin-1-yl)hexanone Oxalate], the IC50 on DAT [1] (setting [3]) is 11.6 nM.

In the case of `O=C(O)C(=O)O.O=C1c2ccccc2CCC1N1CCCC1` (centres unmarked) [compound 17, 2-(Pyrrolidin-1-yl)-3,4-dihydronaphthalen-1(2H)-one Oxalate], on DAT [1], the IC50 came out at 12900 nM and the “Fold decrease in DAT potency relative to comparator compound” value came out at 200 fold.

Regarding `O=C(c1ccccc1)C(C1CCCCC1)N1CCCC1` (centres unmarked) [compound 14, 2-Cyclohexyl-1-phenyl-2-(pyrrolidin-1-yl)ethanone Hydrochloride], 8.3 nM corresponded to half-maximal inhibition on DAT [1] (IC50).

For `O=C(CN1CCCC1)c1ccccc1.O=C(O)C(=O)O` [compound 8, 2-(1-Pyrolidinyl)-1-acetophenone Oxalate], on DAT [1], the “Fold decrease in DAT potency relative to comparator compound” value is given as 185 fold. The half-maximal inhibitory concentration (IC50) at DAT [1] (setting [3]) is 3250 nM.

Consider `CCCC(C(=O)c1ccc(Cl)c(Cl)c1)N1CCCC1` (stereo not drawn) [3,4-dichloro-α-PVP], for which the IC50 with DAT [2] is 43 nM.

`CCCC(C(=O)c1ccccc1)N1CCCCC1` (centres unmarked) [compound 16, 1-Phenyl-2-(piperidin-1-yl)pentan-1-one Hydrochloride] gave an IC50 against DAT [1] of 128 nM.

Take `CCCC(C(=O)c1ccccc1)N1CCCC1` (stereo not drawn) [compound 7, α-Pyrrolidinovalerophenone, reference compound]: the IC50 on DAT [1] (setting [3]) is 17.5 nM.

`CC(C)C(C(=O)c1ccccc1)N1CCCC1` (centres unmarked) [compound 11]: the IC50 on DAT [1] (setting [3]) was found to be 92.3 nM.
